Assay results published in PMC9822352, “Design, Synthesis and Evaluation of New Multifunctional Benzothiazoles as Photoprotective, Antioxidant and Antiproliferative Agents” (Molecules, 2022).

Columns and labels:
[1] = In vitro filtering parameters of O/W sunscreen formulation containing 3% compound (modified Diffey-Robson, PMMA plates); conditions: 3% in formulation, before irradiation
Excerpt: All synthesized compounds were formulated at 3% and their photoprotective efficacy, determined by spectrophotometric measurements using the modified Diffey-Robson method, was compared with that of the lead compound PBSA (used at 3% in the same formulation) and using the base without active as a control (Table 2).
The synthesized compounds were incorporated at a concentration of 3% in a typical oil-in-water sunscreen formulation, to evaluate the filtering parameters, and have the following ingredient composition:
INCI (International Nomenclature Cosmetic Ingredients): aqua, glycerin, Euxyl PE 9010, xanthan gum, Tribehenin PEG-20 Esters, cetearyl alcohol, dicaprylyl carbonate, PPG-26-Buteth-26 (and) PEG-40 Hydrogenated Castor Oil (and) water, C12-C15 Alkyl Benzoate, and Sodium hydroxide (sol. 10%).
As previously reported the protocol indicates to spread 32.5 mg of each formulation on 25 cm^2 PMMA plates with the fingers. Each formulation was tested in triplicate, and five measurements were recorded for each dish, following a 15–30 min incubation in the dark at room temperature. UV transmittance data was recorded using a UV-VIS spectrophotometer in the range 290–400 nm. The blank plate, SPF, UVA-PF and critical wavelength were obtained by SPF Calculator software (version 2.1), Shimadzu, Milan, Italy).

[2] = Photostability study of 3% formulation (post-irradiation filtering parameters); conditions: 3% in formulation, post irradiation
Excerpt: To outline the efficacy and safety profile of a sunscreen formulation, it is essential to provide data relating to photostability. It is possible to provide photodegradation data by recording, pre- and post-irradiation, the transmittance of PMMA plates with finger-coat formulations subjected to a dose of UVA capable of causing erythema, according to the criteria of Garoli et al.. By means of Equations (2) and (3) it was possible to evaluate the residual percentage of SPF in vitro and of UVA-PF for all the prepared formulations. Of greatest interest are the values obtained for the derivatives BZTcin2 and BZTcin4.
To determine the photostability, the previously reported method was adopted, which consists in preparing each plate as mentioned above and subjecting it to solar irradiation quantified as the minimum dose of UVA equivalent to an effective radiant exposure of erythema. The protocol stipulates that, before and after exposure to sunlight, the transmission of the sun protection layer in the range of 290–400 nm is recorded.
Using Equations (2) and (3) below, the residual percentage of SPF in vitro (% SPFeff.) and UVA-PF (% UVA-PFeff.) have been obtained, which, if greater than or equal to 80, can classify a filter as photostable. %SPFeff. = in vitro SPFafter/in vitro SPFbefore × 100(2) %UVA − PFeff. = UVA − PFafter/UVA − PFbefore × 100(3)

[3] = UV spectra in solution (MeOH-DMSO): λmax and molar extinction coefficient; format: physicochemical; conditions: for ε (molar extinction coefficient): at λmax, Lambert-Beer equation, in M-1 cm-1 (unit assumed); for λmax: solution in MeOH-DMSO, 290–400 nm
Experimental: We next investigated the protective potential against UV radiation of each compound. Specifically, in vitro tests were conducted to determine the parameters related to absorption in the UV spectrum and those fundamental to the relative evaluation of the filtering potential and thus candidature as possible UV sunscreen ingredients of the candidates under examination, including λ critical and SPF (sun protection factor). Since the SPF is correlated to the UV quantitative absorption of the substances, the wavelength of maximum absorption (λmax) and the molar extinction coefficient (ε) of the derivatives in solution (MeOH-DMSO) were evaluated (Figures S1 and S2, Supplementary Materials). The UV spectra of the compounds BZTidr1–6 and BZTcin1–5 were recorded in the UVA-UVB range (290–400 nm) to evaluate their profile and compare it to that of the PBSA, a commercial UVB filter that has a λmax of 302 nm. After this peak, the absorbance of PBSA drops, reaching almost zero in the 325 nm range, and thus not providing absorption in the UVA region.
Once the λmax of each derivative was established, the molar extinction coefficient ε was calculated by applying the Lambert-Beer equation (Table S1, Supplementary Materials): the higher this value, the greater the ability of the compound under examination to absorb UV radiation. […] The excellent values of BZTidr1, BZTidr2 and BZTidr3 are ascribed to the aforementioned hyperchromic shift. In regard to the BZTcin1–5 series, the molar extinction coefficients calculated were very high, and the best values were those of BZTcin1, BZTcin2 and BZTcin3, also attributable to the hyperchromic shift of the absorption spectra. For both series, the excellent absorption capacity of ultraviolet radiation can be traced back to the high π-type conjugation that characterizes them.

[4] = DPPH radical scavenging test; conditions: compound at 1 mg/mL, 30 min, 517 nm; mean ± SEM
Experimental: The DPPH assay is widely used, and the simplest and fastest in vitro method for evaluating the antioxidant power of extracts or isolated compounds; it is based on the depletion of the 2,2-diphenyl-1-picrylhydrazyl radical (DPPH˙) by an antioxidant molecule with scavenger activity. This is an extremely sensitive test that can detect the activity of active ingredients present in very low concentrations.
The procedure used was adapted from Wang et al.. Briefly, 0.750 mL of a methanolic solution of each tested compound was treated with 1.5 mL of DPPH solution (0.004%) in MeOH. Samples were stored in the dark at room temperature for 30 min, and the absorbance value was read with a spectrophotometer at 517 nm, which is the maximum peak of absorbance relative to the DPPH radical absorption spectra. The values obtained were fitted into Equation (1) and converted to inhibition percentage (%) of the radical:DPPH inhibition percentage (%) = 100 × [1 − A1/A0](1) where A1 and A0 were, respectively, the absorbance recorded with and without the sample, which are directly proportional to DPPH residual concentration in the sample and DPPH concentration in the control (0.750 of MeOH and 1.5 mL of DPPH solution). […] A linear regression was performed to calculate the sample concentration able to eliminate 50% of DPPH free radicals.

[5] = FRAP (Ferric Reducing Antioxidant Power) assay; conditions: Trolox standard, 37 °C 10 min, 593 nm; mean ± SEM
Excerpt: The FRAP (Ferric Reducing Antioxidant Power) test allows the measurement of the ability of antioxidants to reduce ferric ion to ferrous. This method represents one of the simplest, quickest and least expensive methods for the determination of reducing properties on oxidized species in vitro.
The FRAP test (Ferric Reducing Antioxidant Power) is based on a colorimetric reaction and evaluates the ability of a sample of reducing ferric ions to ferrous ion while complexed with TPTZ (2,4,6-trispyridil-s-triazine). The FRAP solution was prepared from 0.1 M acetate buffer (pH 3.6), 10 mmol/L of TPTZ in 40 mM HCl, and 20 mM solution of FeCl3, with a 10:1:1 ratio, as described. Then, 1.9 mL of this solution was incubated with 0.1 mL of the sample solution at 37 °C for 10 min. The absorbance was read with a UV-Vis spectrophotometer at a 593 nm wavelength, relative to the maximum peak of absorbance of Fe^2+-TPTZ complex. Trolox® was used as a standard and the results are expressed as µmolTE/g.

melanoma Colo-38 cells = assay: Cell growth inhibition assay, Colo-38; format: cell-based, human; conditions: Homo sapiens; 24 h incubation, cell count
Experimental: (§1) All synthesized compounds were tested in order to evaluate their in vitro antiproliferative activity. The human melanoma Colo-38 cell line was selected as a tumor skin model, while the immortalized human HaCaT keratinocytes were chosen as a control for the evaluation of the cytotoxicity towards non-cancerous cells and of the selectivity towards tumor cell lines. […] The selectivity index (SI) was also calculated and is the ratio between the IC50 of a given compound towards the non-cancerous cell line and the IC50 of the same compound towards the tumor cell line.
(§2) Cell growth inhibition assays were carried out using human melanoma Colo-38 cells and skin HaCat keratinocytes cells. Human melanoma Colo-38 cells were kindly provided by Dr. Patrizio Giacomini (Laboratory of Immunology, Regina Elena Institute, Rome, Italy). HaCat cells were kindly provided by Istituto Zooprofilattico Sperimentale della Lombardia e dell’Emilia Romagna, Brescia, Italy. Cell lines were seeded using concentrations of 40,000 cells/mL and 25,000 cells/mL, respectively. Colo-38 cells were maintained in RPMI 1640, supplemented with 10% fetal bovine serum (FBS), penicillin (100 Units mL^−1), and streptomycin (100 µg mL^−1). HaCat cells were maintained in DMEM, supplemented with 10% fetal bovine serum (FBS), penicillin (100 Units mL^−1), streptomycin (100 µg mL^−1) and glutamine (2 mM); the incubation was performed at 37 °C in a 5% CO2 atmosphere. Tested compounds were dissolved in MeOH/DMSO (1:1) to obtain 50 mM stock solutions and diluted before cell treatment in MeOH 100%. The tested compounds were added at serial dilutions to the cell cultures (from 0.1 to 100 µM) and incubated for 24 h further. Cells were then harvested, suspended in physiological solution, and counted with a Z2 Coulter Counter (Coulter Electronics, Hialeah, FL, USA). The cell number/mL and the IC50 values were determined when untreated cells were in the log phase of cell growth. Cells treated with vehicles and untreated cells were placed in each plate.

HaCat keratinocytes = assay: Cell growth inhibition assay, HaCat; format: cell-based, human; conditions: Homo sapiens, HaCaT; 24 h incubation, cell count
Experimental: as §1, §2

ε (molar extinction coefficient) [3] | λmax [3] [nm] | melting point [°C] | IC50 (melanoma Colo-38 cells) [µM] | SMILES | SPF [1] | UVA/UVB [1] | UVAPF0 [1] | λc [1] [nm] | SPF [2] | UVA/UVB [2] | UVAPF [2] | λc [2] [nm] | DPPH (% Inhibition) [4] [%] | FRAP [5] [µmolTE/g] | IC50 (HaCat keratinocytes) [µM]
29641.85 | 333.1 | 208 to 215 |  | COc1ccc(/C=N/NC(=O)c2nc3ccccc3s2)cc1 [BZTidr3, (E)-N′-(4-methoxybenzylidene)benzo[d]thiazole-2-carbohydrazide] | 1.31 | 1.11 | 1.44 | 387 | 1.31 | 1.11 | 1.41 | 387 | 24.25 ± 1.38 | 273.99 ± 10.12 | 
22183.99 | 346.2 | > 280 | 92.9 ± 1.62 | O=C(N/N=C/c1ccc(O)c(O)c1)c1nc2ccccc2s1 [BZTidr4, (E)-N′-(3,4-dihydroxybenzylidene)benzo[d]thiazole-2-carbohydrazide] | 1.53 | 1.05 | 1.65 | 389 | 1.63 | 1.05 | 1.64 | 389 | >90.00 |  | > 100
